From ChEMBL document CHEMBL1125655 (J Med Chem, 1991)

Test: pKa value of the compound
Assay type: physicochemical

`CN1CC[C@]23c4c5ccc(O)c4O[C@H]2[C@@H](O[C@@H]2O[C@H](C(=O)O)[C@@H](O)[C@H](O)[C@H]2O)C=C[C@H]3[C@H]1C5` (stereo in doubt; form 1) [MORPHINE GLUCURONIDE] showed a pKa of 3.23.
